This is an account of results in patent publication US20060116390A1, “Hepatitis c virus inhibitors” (priority 2003, published 2006).

This test deals with HCV proteins in Rep5.1 cells (replicon cell line). In words: Inhibitory activity of HCV: cell-based ELISA in replicon cell line Rep5.1 (decrease of HCV proteins). Set-up: species or system hepatitis C virus. To be noted: Hepatitis C virus, 72 h, Rep5.1 cells, 72 hours with drug. The essentials:
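Rep5.1 replicon cells (5000/well, DMEM-10 with 500 μg/ml G418) were given serially diluted drug 4 h after seeding. After 72 h, cells were fixed in methanol/acetone and HCV proteins detected by cell-based ELISA using replicon-specific patient plasma antibodies. IC50 is the concentration giving 50% protein decrease versus the no-drug control.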

The mark [1] stands for this setting: concentration at which 50% of HCV proteins was decreased, Table 2, read-out: IC50.
The mark [2] stands for this setting: decrease of HCV proteins measured by HCV antibody, Table 1, read-out: Level (IC50 values classified).

Molecules are shown by their SMILES. Where two headings read alike, the source gives them in different places.

The term IC50 denotes the concentration at which inhibition is half-maximal. `CCOc1ccc(CCOC(=O)C2=C(C)NC(=S)NC2CO)cc1` (stereo not drawn) [60″, 4-hydroxymethyl-6-methyl-2-thioxo-1,2,3,4-tetrahydro-pyrimidine-5-carboxylic acid 2-(4-ethoxy-phenyl)-ethyl ester]: the IC50 reads like this: under setting [1], 2500 nM; under setting [2], 1000 to 10000 nM.

On to `CC1=C(C(=O)OCCCCc2ccsc2)C(CF)NC(=S)N1` (stereo not drawn) [61′, 4-fluoromethyl-6-methyl-2-thioxo-1,2,3,4-tetrahydro-pyrimidine-5-carboxylic acid 4-thiophen-3-yl-butyl ester], for which the IC50 reads like this: under setting [1], 3000 nM; under setting [2], 1000 to 10000 nM.

With `CC1=C(C(=O)OCC2(c3ccc(Cl)cc3Cl)CC2)C(CO)NC(=S)N1` (stereo not drawn) [61″, 4-hydroxymethyl-6-methyl-2-thioxo-1,2,3,4-tetrahydro-pyrimidine-5-carboxylic acid 1-(2,4-dichloro-phenyl)-cyclopropylmethyl ester], the IC50 runs as follows: under setting [1], 16000 nM; under setting [2], 10000 to 20000 nM.

With `CC1=C(C(=O)OCc2ccc(-c3cccs3)s2)C(CF)NC(=S)N1` (stereo not drawn) [62′, 4-fluoromethyl-6-methyl-2-thioxo-1,2,3,4-tetrahydro-pyrimidine-5-carboxylic acid [2,2′]bithiophenyl-5-ylmethyl ester], the IC50 is, setting by setting: under setting [1], 2000 nM; under setting [2], 1000 to 10000 nM.

On to `CC1=C(C(=O)SCCc2ccccc2)C(CO)NC(=S)N1` (stereo not drawn) [62″, 4-hydroxymethyl-6-methyl-2-thioxo-1,2,3,4-tetrahydro-pyrimidine-5-carbothioic acid S-phenethyl ester], for which the IC50 is over 100000 nM under setting [1] and over 20000 nM under setting [2].

On to `CSCCCOC(=O)C1=C(C)NC(=S)NC1CF` (stereo not drawn) [63′, 4-fluoromethyl-6-methyl-2-thioxo-1,2,3,4-tetrahydro-pyrimidine-5-carboxylic acid 3-methylsulfanyl-propyl ester], for which the IC50 runs as follows: under setting [1], over 100000 nM; under setting [2], over 20000 nM.

For the compound `CC1=C(C(=O)OCCc2ccc(C)cc2)C(CO)NC(=S)N1` (stereo not drawn) [63″, 4-hydroxymethyl-6-methyl-2-thioxo-1,2,3,4-tetrahydro-pyrimidine-5-carboxylic acid 2-p-tolyl-ethyl ester], the IC50 by setting is: under setting [1], 1600 nM; under setting [2], 1000 to 10000 nM.

Take `COc1ccc(C2(COC(=O)C3=C(C)NC(=S)NC3CF)CCCC2)cc1` (stereo not drawn) [64′, 4-fluoromethyl-6-methyl-2-thioxo-1,2,3,4-tetrahydro-pyrimidine-5-carboxylic acid 1-(4-methoxy-phenyl)-cyclopentylmethyl ester]: the IC50 runs as follows: under setting [1], 3000 nM; under setting [2], 1000 to 10000 nM.

Consider `CC1=C(C(=O)OCCc2cccc(C)c2)C(CO)NC(=S)N1` (stereo not drawn) [64″, 4-hydroxymethyl-6-methyl-2-thioxo-1,2,3,4-tetrahydro-pyrimidine-5-carboxylic acid 2-m-tolyl-ethyl ester], for which the half-inhibitory concentration (IC50) was 5500 nM under setting [1] and 1000 to 10000 nM under setting [2].

Regarding `CC1=C(C(=O)OCCc2c(F)c(F)cc(F)c2F)C(CF)NC(=S)N1` (stereo not drawn) [65′, 4-fluoromethyl-6-methyl-2-thioxo-1,2,3,4-tetrahydro-pyrimidine-5-carboxylic acid 2-(2,3,5,6-tetrafluoro-phenyl)-ethyl ester], the IC50 under setting [1] came out at 1400 nM and the IC50 under setting [2] is 1000 to 10000 nM.

Turning to `CCc1ccc(CCOC(=O)C2=C(C)NC(=S)NC2CO)o1` (stereo not drawn) [65″, 4-hydroxymethyl-6-methyl-2-thioxo-1,2,3,4-tetrahydro-pyrimidine-5-carboxylic acid 2-(5-ethyl-furan-2-yl)-ethyl ester], the IC50 under setting [1] came to 1400 nM and the IC50 under setting [2] is 1000 to 10000 nM.

Consider `COc1ccc(C2(COC(=O)C3=C(C)NC(=S)NC3CF)CC2)cc1` (stereo not drawn) [66′, 4-fluoromethyl-6-methyl-2-thioxo-1,2,3,4-tetrahydro-pyrimidine-5-carboxylic acid 1-(4-methoxy-phenyl)-cyclopropylmethyl ester], for which the IC50 is, setting by setting: under setting [1], 8000 nM; under setting [2], 1000 to 10000 nM.

Consider `CC1=C(C(=O)OCCc2ccc(F)c(C)c2)C(CO)NC(=S)N1` (stereo not drawn) [66″, 4-hydroxymethyl-6-methyl-2-thioxo-1,2,3,4-tetrahydro-pyrimidine-5-carboxylic acid 2-(4-fluoro-3-methyl-phenyl)-ethyl ester], for which the IC50 was 700 nM under setting [1] and under 1000 nM under setting [2].

For the compound `O=C(OCCc1ccsc1)C1=C(CO)NC(=S)NC1` [67′, 6-hydroxymethyl-2-thioxo-1,2,3,4-tetrahydro-pyrimidine-5-carboxylic acid 2-thiophen-3-yl-ethyl ester], the IC50 reads like this: under setting [1], over 100000 nM; under setting [2], over 20000 nM.

As for `CC1=C(C(=O)OCCc2ccc(Cl)c(C(F)(F)F)c2)C(CO)NC(=S)N1` (stereo not drawn) [67″, 4-hydroxymethyl-6-methyl-2-thioxo-1,2,3,4-tetrahydro-pyrimidine-5-carboxylic acid 2-(4-chloro-3-trifluoromethyl-phenyl)-ethyl ester], the half-maximal inhibitory concentration (IC50) runs as follows: under setting [1], under 400 nM; under setting [2], under 1000 nM.

Consider `CC1=C(C(=O)OCCCc2ccsc2)C(CS(=O)(=O)C(C)(C)C)NC(=S)N1` (stereo not drawn) [68′, 6-methyl-4-(2-methyl-propane-2-sulfonylmethyl)-2-thioxo-1,2,3,4-tetrahydro-pyrimidine-5-carboxylic acid 3-thiophen-3-yl-propyl ester], for which the IC50 is over 100000 nM under setting [1] and over 20000 nM under setting [2].

With `CC1=C(C(=O)OCCc2ccc(F)c(F)c2)C(CO)NC(=S)N1` (stereo not drawn) [68″, 4-hydroxymethyl-6-methyl-2-thioxo-1,2,3,4-tetrahydro-pyrimidine-5-carboxylic acid 2-(3,4-difluoro-phenyl)-ethyl ester], the IC50 under setting [1] came out at 2700 nM and the IC50 under setting [2] lay in the range of 1000 to 10000 nM.

Turning to `CC1=C(C(=O)OCc2cc(F)cc(F)c2)C(CF)NC(=S)N1` (stereo not drawn) [69′, 4-fluoromethyl-6-methyl-2-thioxo-1,2,3,4-tetrahydro-pyrimidine-5-carboxylic acid 3,5-difluoro-benzyl ester], the IC50 runs as follows: under setting [1], 3000 nM; under setting [2], 1000 to 10000 nM.

Turning to `COc1ccc(CCOC(=O)C2=C(C)NC(=S)NC2CO)cc1C` (stereo not drawn) [69″, 4-hydroxymethyl-6-methyl-2-thioxo-1,2,3,4-tetrahydro-pyrimidine-5-carboxylic acid 2-(4-methoxy-3-methyl-phenyl)-ethyl ester], the IC50 is 800 nM under setting [1] and under 1000 nM under setting [2].

In the case of `CC1=C(C(=O)OCCc2cccc(Cl)c2)C(CF)NC(=S)N1` (stereo not drawn) [70′, 4-fluoromethyl-6-methyl-2-thioxo-1,2,3,4-tetrahydro-pyrimidine-5-carboxylic acid 2-(3-chloro-phenyl)-ethyl ester], the IC50 reads like this: under setting [1], 1000 nM; under setting [2], under 1000 nM.

As for `CC1=C(C(=O)OCCCCSc2nc3ccccc3s2)C(CO)NC(=S)N1` (stereo not drawn) [70″, 4-hydroxymethyl-6-methyl-2-thioxo-1,2,3,4-tetrahydro-pyrimidine-5-carboxylic acid 4-(benzothiazol-2-ylsulfanyl)-butyl ester], the IC50 was 400 nM under setting [1] and under 1000 nM under setting [2].

Take `CC1=C(C(=O)OCC(F)(F)c2ccsc2)CNC(=S)N1` [71′, 6-methyl-2-thioxo-1,2,3,4-tetrahydro-pyrimidine-5-carboxylic acid 2,2-difluoro-2-thiophen-3-yl-ethyl ester]: the IC50 reads like this: under setting [1], 600 nM; under setting [2], under 1000 nM.

With `CC1=C(C(=O)OCc2cc(F)cc(F)c2)C(CO)NC(=S)N1` (stereo not drawn) [71″, 4-hydroxymethyl-6-methyl-2-thioxo-1,2,3,4-tetrahydro-pyrimidine-5-carboxylic acid 3,5-difluoro-benzyl ester], the IC50 was over 100000 nM under setting [1] and over 20000 nM under setting [2].

As for `CC1=C(C(=O)OCc2cccc(SC(F)(F)F)c2)C(CF)NC(=S)N1` (stereo not drawn) [72′, 4-fluoromethyl-6-methyl-2-thioxo-1,2,3,4-tetrahydro-pyrimidine-5-carboxylic acid 3-trifluoromethylsulfanyl-benzyl ester], the IC50 by setting is: under setting [1], under 400 nM; under setting [2], under 1000 nM.

For `CCc1ccc(CCOC(=O)C2=C(C)NC(=S)NC2CO)cc1F` (stereo not drawn) [72″, 4-hydroxymethyl-6-methyl-2-thioxo-1,2,3,4-tetrahydro-pyrimidine-5-carboxylic acid 2-(4-ethyl-3-fluoro-phenyl)-ethyl ester], the IC50 runs as follows: under setting [1], 400 nM; under setting [2], under 1000 nM.

Turning to `CC1=C(C(=O)OCCc2cccc(C(F)(F)F)c2)C(COC(=O)C(C)N)NC(=S)N1` (stereo not drawn) [73″, 4-(2-amino-propionyloxymethyl)-6-methyl-2-thioxo-1,2,3,4-tetrahydro-pyrimidine-5-carboxylic acid 2-(3-trifluoromethyl-phenyl)-ethyl ester], the concentration for half-maximal inhibition (IC50) is 400 nM under setting [1] and under 1000 nM under setting [2].

As for `CC1=C(C(=O)OC(C)CCc2cccs2)C(CF)NC(=S)N1` (stereo not drawn) [74′, 4-fluoromethyl-6-methyl-2-thioxo-1,2,3,4-tetrahydro-pyrimidine-5-carboxylic acid 1-methyl-3-thiophen-2-yl-propyl ester], the IC50 is, setting by setting: under setting [1], 7000 nM; under setting [2], 1000 to 10000 nM.

For `CC1=C(C(=O)OCCc2ccc(C)c(Cl)c2)C(CO)NC(=S)N1` (stereo not drawn) [74″, 4-hydroxymethyl-6-methyl-2-thioxo-1,2,3,4-tetrahydro-pyrimidine-5-carboxylic acid 2-(3-chloro-4-methyl-phenyl)-ethyl ester], the IC50 was under 400 nM under setting [1] and under 1000 nM under setting [2].

For `CC1=C(C(=O)OCCc2c(F)cccc2F)C(CF)NC(=S)N1` (stereo not drawn) [75′, 4-fluoromethyl-6-methyl-2-thioxo-1,2,3,4-tetrahydro-pyrimidine-5-carboxylic acid 2-(2,6-difluoro-phenyl)-ethyl ester], the IC50 is 2600 nM under setting [1] and 1000 to 10000 nM under setting [2].

As for `CC1=C(C(=O)OCCc2cccc(OC(F)(F)F)c2)C(CO)NC(=S)N1` (stereo not drawn) [75″, 4-hydroxymethyl-6-methyl-2-thioxo-1,2,3,4-tetrahydro-pyrimidine-5-carboxylic acid 2-(3-trifluoromethoxy-phenyl)-ethyl ester], the IC50 is, setting by setting: under setting [1], under 400 nM; under setting [2], under 1000 nM.
